Results published in PubChem BioAssay AID1963443 (Molecular Pharmacology Branch, DTP, NCI, 2024).

System: MDA-MB-231 complex spheroids, growth inhibition
Assay: Anticancer human tumor MDA-MB-231 cell line growth inhibition [Asc];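 further: spheroids exposed to compounds for 7 days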
Conditions: for IC50: curve of first compound; for viability, T/C: stronger effect = lower value
How it was run: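 Stromal components (HUVEC and hMSC) are co-assembled with the cancer cells into multicellular spheroids. Drugs are then added singly or paired, at concentrations falling by half-log increments from a clinically achievable maximum, capped at 10 microM without known Cmax.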

CNC(C)C(=O)NC1CN(S(=O)(=O)c2cccc(S(=O)(=O)N3CCC4CCC(C(=O)NC(c5ccccc5)c5ccccc5)N4C(=O)C(NC(=O)C(C)NC)C3)c2)CCC2CCC(C(=O)NC(c3ccccc3)c3ccccc3)N2C1=O (stereo not given) + Cc1c(S(C)(=O)=O)c(-c2cc(F)cc(N3CCN(c4ccc(NS(=O)(=O)c5ccc(NC(CCN6CCC(C(=O)OCCCP(=O)(O)O)CC6)CSc6ccccc6)c(S(=O)(=O)C(F)(F)F)c5)cc4)CC3)c2)c(-c2ccc(Cl)cc2)n1C(C)C
IC50 (second compound 0.1 µM): < 3.16 nM
IC50 (second compound 0.316 µM): < 3.16 nM
IC50 (second compound 1 µM): < 3.16 nM
IC50 (second compound 3.16 µM): < 3.16 nM
IC50 (second compound 10 µM): < 3.16 nM
viability, T/C (second compound 0.1 µM, first compound 0.00316 µM): 2.88%
viability, T/C (second compound 0.1 µM, first compound 0.01 µM): 0.95%
viability, T/C (second compound 0.1 µM, first compound 0.0316 µM): 0.9%
viability, T/C (second compound 0.1 µM, first compound 0.1 µM): 0.67%
viability, T/C (second compound 0.1 µM, first compound 0.316 µM): 0.5%
viability, T/C (second compound 0.1 µM, first compound 1 µM): 0.72%
viability, T/C (second compound 0.316 µM, first compound 0.00316 µM): 2.6%
viability, T/C (second compound 0.316 µM, first compound 0.01 µM): 0.97%
viability, T/C (second compound 0.316 µM, first compound 0.0316 µM): 0.75%
viability, T/C (second compound 0.316 µM, first compound 0.1 µM): 0.41%
viability, T/C (second compound 0.316 µM, first compound 0.316 µM): 0.53%
viability, T/C (second compound 0.316 µM, first compound 1 µM): 0.56%
viability, T/C (second compound 1 µM, first compound 0.00316 µM): 2.07%
viability, T/C (second compound 1 µM, first compound 0.01 µM): 0.62%
viability, T/C (second compound 1 µM, first compound 0.0316 µM): 0.54%
viability, T/C (second compound 1 µM, first compound 0.1 µM): 0.29%
viability, T/C (second compound 1 µM, first compound 0.316 µM): 0.35%
viability, T/C (second compound 1 µM, first compound 1 µM): 0.9%
viability, T/C (second compound 3.16 µM, first compound 0.00316 µM): 1.77%
viability, T/C (second compound 3.16 µM, first compound 0.01 µM): 0.46%
viability, T/C (second compound 3.16 µM, first compound 0.0316 µM): 0.35%
viability, T/C (second compound 3.16 µM, first compound 0.1 µM): 0.27%
viability, T/C (second compound 3.16 µM, first compound 0.316 µM): 0.26%
viability, T/C (second compound 3.16 µM, first compound 1 µM): 0.39%
viability, T/C (second compound 10 µM, first compound 0.00316 µM): 1.22%
viability, T/C (second compound 10 µM, first compound 0.01 µM): 0.49%
viability, T/C (second compound 10 µM, first compound 0.0316 µM): 0.42%
viability, T/C (second compound 10 µM, first compound 0.1 µM): 0.48%
viability, T/C (second compound 10 µM, first compound 0.316 µM): 0.43%
viability, T/C (second compound 10 µM, first compound 1 µM): 0.61%
